From patent US20150105252A1, “SUBSTITUTED PYRAZOLES AS HERBICIDES” (E I DU PONT DE NEMOURS AND COMPANY, priority 2013, published 2015)

Legend:
barnyardgrass [1] = experiment: Test B flood; format: in vivo, Echinochloa crus-galli; conditions: 250 g ai/ha, visual rating on 0 to 100 scale (0 no effect, 100 complete control), 13 to 15 days
How it was run: (§1)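 At two leaves, seedlings received the test compound via the paddy water, pots having been flooded 3 cm over the soil surface and kept so. Greenhouse-held for 13 to 15 days, then judged by eye against controls on a scale running 0 (no effect) to 100 (complete control).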

corn [2] = experiment: Test A preemergence; format: in vivo, Zea mays; conditions: preemergence
How it was run: (§2)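 Both timings tested concurrently in loam/sand soil: preemergence by directed soil spray, postemergence on plants of 2–10 cm at the one- to two-leaf stage. Greenhouse holding period was approximately 10 days before visual injury assessment (0–100, 0 = no effect).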

sedge, umbrella = experiment: Test B flood; format: in vivo, Cyperus difformis; conditions: 250 g ai/ha, visual rating on 0 to 100 scale (0 no effect, 100 complete control), 13 to 15 days
How it was run: as §1

pigweed [3] = experiment: Test A postemergence; format: in vivo, Amaranthus retroflexus
How it was run: as §2

wheat [4] = experiment: Test A postemergence; format: in vivo, Triticum aestivum
How it was run: as §2

velvetleaf [5] = experiment: Test A postemergence; format: in vivo, Abutilon theophrasti
How it was run: as §2

foxtail, giant [6] = experiment: Test A preemergence; format: in vivo, Setaria faberii; conditions: preemergence
How it was run: as §2

wheat [7] = experiment: Test A preemergence; format: in vivo, Triticum aestivum; conditions: preemergence
How it was run: as §2

velvetleaf [8] = experiment: Test A preemergence; format: in vivo, Abutilon theophrasti; conditions: preemergence
How it was run: as §2

morningglory [9] = experiment: Test A postemergence; format: in vivo, Ipomoea spp.
How it was run: as §2

foxtail, giant [10] = experiment: Test A postemergence; format: in vivo, Setaria faberii
How it was run: as §2

pigweed [11] = experiment: Test A preemergence; format: in vivo, Amaranthus retroflexus; conditions: preemergence
How it was run: as §2

ducksalad = experiment: Test B flood; format: in vivo, Heteranthera limosa; conditions: 250 g ai/ha, visual rating on 0 to 100 scale (0 no effect, 100 complete control), 13 to 15 days
How it was run: as §1

corn [12] = experiment: Test A postemergence; format: in vivo, Zea mays
How it was run: as §2

crabgrass, large [13] = experiment: Test A preemergence; format: in vivo, Digitaria sanguinalis; conditions: preemergence
How it was run: as §2

morningglory [14] = experiment: Test A preemergence; format: in vivo, Ipomoea spp.; conditions: preemergence
How it was run: as §2

barnyardgrass [15] = experiment: Test A postemergence; format: in vivo, Echinochloa crus-galli; conditions: Postemergence
How it was run: as §2

crabgrass, large [16] = experiment: Test A postemergence; format: in vivo, Digitaria sanguinalis
How it was run: as §2

barnyardgrass [17] = experiment: Test A preemergence; format: in vivo, Echinochloa crus-galli; conditions: preemergence
How it was run: as §2

rice = experiment: Test B flood; format: in vivo, Oryza sativa; conditions: 250 g ai/ha, visual rating on 0 to 100 scale (0 no effect, 100 complete control), 13 to 15 days
How it was run: as §1

[18] = 125 g ai/ha, visual injury, 0 to 100 scale, approx. 10 days
[19] = 500 g ai/ha, visual injury after approx. 10 days, 0 to 100 scale (0 no effect, 100 complete control)
[20] = Postemergence, 500 g ai/ha, visual rating after approx. 10 days, 0 to 100 scale (0 no effect, 100 complete control)
[21] = postemergence, 125 g ai/ha, about 10 days, visual rating on 0 to 100 scale (0 no effect, 100 complete control)
[22] = 125 g ai/ha, 0 to 100 scale, 0 no effect, 100 complete control
[23] = 500 g ai/ha, visual rating after approx. 10 days, 0 to 100 scale (0 no effect, 100 complete control)

Compound: CCCc1cc(C(=O)Nc2ccc(F)cc2)nn1Oc1ccnc(C(F)(F)F)c1 [Compound 94]
- Plant response rating, Barnyardgrass (barnyardgrass [1]): 0
- Corn plant response rating (corn [2]; [18]): 0
- Corn plant response rating (corn [2]; [19]): 0
- Plant response rating, Sedge, Umbrella (sedge, umbrella): 0
- Pigweed plant response rating (pigweed [3]; [20]): 0
- Pigweed plant response rating (pigweed [3]; [21]): 0
- Wheat plant response rating (wheat [4]; [20]): 0
- Wheat plant response rating (wheat [4]; [21]): 0
- Velvetleaf plant response rating (velvetleaf [5]; [20]): 0
- Velvetleaf plant response rating (velvetleaf [5]; [21]): 0
- Foxtail, Giant plant response rating (foxtail, giant [6]; [18]): 0
- Foxtail, Giant plant response rating (foxtail, giant [6]; [19]): 0
- Wheat plant response rating (wheat [7]; [18]): 0
- Wheat plant response rating (wheat [7]; [19]): 0
- Velvetleaf plant response rating (velvetleaf [8]; [18]): 0
- Velvetleaf plant response rating (velvetleaf [8]; [19]): 0
- Morningglory plant response rating (morningglory [9]; [20]): 0
- Morningglory plant response rating (morningglory [9]; [21]): 0
- Foxtail, Giant plant response rating (foxtail, giant [10]; [20]): 0
- Foxtail, Giant plant response rating (foxtail, giant [10]; [21]): 0
- Pigweed plant response rating (pigweed [11]; [18]): 0
- Pigweed plant response rating (pigweed [11]; [19]): 0
- Plant response rating, Ducksalad (ducksalad): 0
- Corn plant response rating (corn [12]; [20]): 0
- Corn plant response rating (corn [12]; [21]): 0
- Crabgrass, Large plant response rating (crabgrass, large [13]; [18]): 0
- Crabgrass, Large plant response rating (crabgrass, large [13]; [19]): 0
- Morningglory plant response rating (morningglory [14]; [18]): 0
- Morningglory plant response rating (morningglory [14]; [19]): 0
- Barnyardgrass plant response rating (barnyardgrass [15]; [22]): 0
- Barnyardgrass plant response rating (barnyardgrass [15]; [23]): 0
- Crabgrass, Large plant response rating (crabgrass, large [16]; [20]): 0
- Crabgrass, Large plant response rating (crabgrass, large [16]; [21]): 0
- Barnyardgrass plant response rating (barnyardgrass [17]; [18]): 0
- Barnyardgrass plant response rating (barnyardgrass [17]; [19]): 0
- Plant response rating, Rice (rice): 0

Compound: Cc1cc(C(=O)Nc2ccc(F)cc2)nn1Oc1ccnc(C(F)(F)F)c1 [Compound 90]
- Plant response rating, Barnyardgrass (barnyardgrass [1]): 0
- Corn plant response rating (corn [2]; [18]): 0
- Corn plant response rating (corn [2]; [19]): 40
- Plant response rating, Sedge, Umbrella (sedge, umbrella): 0
- Pigweed plant response rating (pigweed [3]; [20]): 0
- Pigweed plant response rating (pigweed [3]; [21]): 0
- Wheat plant response rating (wheat [4]; [20]): 0
- Wheat plant response rating (wheat [4]; [21]): 0
- Velvetleaf plant response rating (velvetleaf [5]; [20]): 0
- Velvetleaf plant response rating (velvetleaf [5]; [21]): 0
- Foxtail, Giant plant response rating (foxtail, giant [6]; [18]): 0
- Foxtail, Giant plant response rating (foxtail, giant [6]; [19]): 10
- Wheat plant response rating (wheat [7]; [18]): 0
- Wheat plant response rating (wheat [7]; [19]): 10
- Velvetleaf plant response rating (velvetleaf [8]; [18]): 0
- Velvetleaf plant response rating (velvetleaf [8]; [19]): 0
- Morningglory plant response rating (morningglory [9]; [20]): 10
- Morningglory plant response rating (morningglory [9]; [21]): 0
- Foxtail, Giant plant response rating (foxtail, giant [10]; [20]): 0
- Foxtail, Giant plant response rating (foxtail, giant [10]; [21]): 0
- Pigweed plant response rating (pigweed [11]; [18]): 0
- Pigweed plant response rating (pigweed [11]; [19]): 10
- Plant response rating, Ducksalad (ducksalad): 0
- Corn plant response rating (corn [12]; [20]): 30
- Corn plant response rating (corn [12]; [21]): 0
- Crabgrass, Large plant response rating (crabgrass, large [13]; [18]): 0
- Crabgrass, Large plant response rating (crabgrass, large [13]; [19]): 20
- Morningglory plant response rating (morningglory [14]; [18]): 0
- Morningglory plant response rating (morningglory [14]; [19]): 10
- Barnyardgrass plant response rating (barnyardgrass [15]; [22]): 0
- Barnyardgrass plant response rating (barnyardgrass [15]; [23]): 0
- Crabgrass, Large plant response rating (crabgrass, large [16]; [20]): 0
- Crabgrass, Large plant response rating (crabgrass, large [16]; [21]): 0
- Barnyardgrass plant response rating (barnyardgrass [17]; [18]): 0
- Barnyardgrass plant response rating (barnyardgrass [17]; [19]): 0
- Plant response rating, Rice (rice): 0
